According to US7223764B2, “2,4-bis (trifluoroethoxy)pyridine compound and drug containing the compound” (Kowa Co., Ltd., priority 2003, dated 2007):
Converted amounts (≈) assume the structure as drawn. Counter-ions that a name gives are not always drawn.

Assays:
[1] = Oral administration test in rats (plasma levels); type: in vivo, rat; details: 10 mg/kg p.o.
Procedure: Each test compound was dissolved in a 0.01N hydrochloric acid solution, and the solution was perorally administered to male or female rats at 10 mg/5 mL/kg. Blood samples (0.25 mL each) were collected 30, 60, 120, 180, 240, and 360 minutes after administration. The collected blood samples were centrifuged for five minutes at 4° C. and 9,000 g, to thereby prepare plasma samples. The plasma samples were stored at −30° C. before measurement. The samples were subjected to the extraction procedure*, and plasma levels of the test compound were determined through LC/MS/MS.
(§1) The extraction was performed in a manner similar to that of the test on stability against metabolism in human liver microsome.

[2] = Test on stability against metabolism in human liver microsome; type: in vitro ADME; details: 30 minutes after initiation of reaction, 37° C., FIG. 1
Procedure: In accordance with Table 2 described below, an NRS (NADPH regenerating system) solution and 16% human serum albumin were added to 0.1 mol/L phosphate buffer (pH 7.4), and a solution of a test compound (100 μM) in acetonitrile (0.01 mL) was added thereto. The mixture was pre-incubated for five minutes in a warm bath at 37° C., and human liver microsome (POOLED HUMAN LIVER MICROSOMES, Lot. No. 20, product of GENTEST) was added thereto, followed by allowing reaction for 30 minutes in a warm bath at 37° C. An aliquot (0.25 mL) was collected from the reaction mixture 0 and 30 minutes after the start of reaction, followed by extraction*. The amount of the test compound was determined through HPLC. Residual percentage of the unchanged compound after 30 minutes was calculated based on the following equation: peak area after 30 minutes/peak area at 0 minute)×100.
To each sample, gkycine buffer (pH 10, 1.0 mL), an internal standard substance (0.1 mL), and tert-butyl methyl ether (5.0 mL) were added. The mixture was shaken for ten minutes and then centrifuged at 2,500 rpm […], and the […] was collected.

[3] = Solubility test (Japanese Pharmacopoeia Solution I); type: physicochemical; details: simulated gastric fluid, kinetic from dmso stock, pH 1.2, filtrate through 0.2-μm filter, HPLC
Procedure: Each test compound was dissolved in acetonitrile to form a 100 μM solution, and the solution was added to Japanese Pharmacopoeia Solution I to form a 1000 ng/mL solution. The resultant solution was stirred for ten minutes, and an aliquot (1 mL) was placed into an injection tube and then passed through a 0.2-μm filter (HLC-DISK 13, water/solvent, Kanto Kagaku Kabushiki-kaisya). The filtrate (0.5 mL) was subjected to the extraction procedure*, and the amount of the test compound was determined through HPLC.
as §1

[4] = target: T1, ACAT (Mus musculus, UniProt Q61263); assay: Test for ACAT inhibitory activity in J774A cells (cholesterol ester production); type: cell-based
T1 construct: endogenous in cells; host or cells: J774 (J774A) cells
T1 sequence (Q61263 1-540): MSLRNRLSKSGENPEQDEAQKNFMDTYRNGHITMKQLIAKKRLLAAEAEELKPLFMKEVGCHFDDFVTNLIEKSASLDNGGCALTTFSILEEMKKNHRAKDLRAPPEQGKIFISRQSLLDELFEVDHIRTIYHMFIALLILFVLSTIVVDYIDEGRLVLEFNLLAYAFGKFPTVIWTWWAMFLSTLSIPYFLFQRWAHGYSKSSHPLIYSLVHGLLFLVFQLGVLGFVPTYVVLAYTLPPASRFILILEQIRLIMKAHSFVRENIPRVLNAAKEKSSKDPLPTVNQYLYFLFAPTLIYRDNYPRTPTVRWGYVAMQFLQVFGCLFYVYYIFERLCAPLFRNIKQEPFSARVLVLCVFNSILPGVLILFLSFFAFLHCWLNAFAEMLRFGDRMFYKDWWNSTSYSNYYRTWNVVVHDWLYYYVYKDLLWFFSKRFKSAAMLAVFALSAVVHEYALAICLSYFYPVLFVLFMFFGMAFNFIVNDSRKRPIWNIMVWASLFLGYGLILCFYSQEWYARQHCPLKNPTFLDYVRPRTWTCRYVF
Procedure: J774 cells (2×10^5 cells/well) were seeded on a 24-well plate and incubated for 24 hours in DMEM (10% FBS, 500 μL). After replacement with a new medium, 25-hydroxycholesterol (10 μg/mL) and ACAT inhibitor (final concentration: 0, 10^−9 to 10^−5 mol/L) were added thereto, followed by incubation for 18 hours. After washing with 0.9% sodium chloride, the lipid was extracted with hexane-isopropanol (3:2) (250 μL) and then with hexane-isopropanol (3:2) (250 μL) again. The extracts were combined, and the solvent was removed. The thus-obtained cholesterol ester (CE) was quantified through the fluorescent enzyme assay. The cells from which the lipid had been extracted were subjected to protein assay (micro BCA assay), to thereby determine the amount of CE per mg of protein.

Structure (SMILES)	AUC ([1]; Female rat)	Cmax ([1]; Female rat)	AUC ([1]; Male rat)	Cmax ([1]; Male rat)	residual percentage of the unchanged compound [2]	solubility at 10 min [3]	melting point	IC50 [4]
CSc1cc(C)nc(SC)c1NC(=O)CN1CCN(CCSc2nc3ccccc3[nH]2)CC1 [Compound (B).HCl, reference compound]	2470 ng·h/mL	1170 ng/mL	200 ng·h/mL	207 ng/mL	16%			
Cc1cc(OCC(F)(F)F)c(NC(=O)CN2CCN(CCSc3nc4ccc(F)cc4[nH]3)CC2)c(OCC(F)(F)F)n1 [Compound (1a), 2-[4-[2-(5-fluorobenzimidazol-2-ylthio)ethyl]piperazin-1-yl]-N-[2,4-bis(2,2,2-trifluoroethoxy)-6-methylpyridin-3-yl]acetamide]	5100 ng·h/mL	3410 ng/mL	367 ng·h/mL	418 ng/mL	27%	0.562 µg/mL (≈ 0.9 µM)	182 to 182.7 °C	87 nM
Cc1cc(OCC(F)(F)F)c(NC(=O)CN2CCN(CCSc3nc4cc(F)c(F)cc4[nH]3)CC2)c(OCC(F)(F)F)n1 [Compound (1b), 2-[4-[2-(5,6-difluorobenzimidazol-2-ylthio)ethyl]piperazin-1-yl]-N-[2,4-bis(2,2,2-trifluoroethoxy)-6-methylpyridin-3-yl]acetamide]	6550 ng·h/mL	2840 ng/mL	917 ng·h/mL	614 ng/mL	62%	0.422 µg/mL (≈ 0.657 µM)	191 to 192 °C	75 nM
